# Test results: PubChem BioAssay AID1745844 (Carcinogenic Potency Database (CPDB), 2022)
# Active and inactive are the calls of the source. No rule for the calls is given here.
# Tested on: rodent lifetime carcinogenesis bioassay, tumor incidence TD50
# Test: chronic cancer bioassays in animals – CPDB, compiled studies (AID 1745844)
structure (smiles),measurement,setting,value
CCn1c2ccccc2c2cc(N)ccc21,TD50,"mouse, strain B6C3F1, females, in feed, site: any site (literature study), lesion: several types, types named in the paper, dosed 78 weeks, study length 95 weeks",41.8 mg/kg/day
same,TD50,"mouse, strain B6C3F1, females, in feed, site: liver, lesion: hepatocellular adenoma + hepatocellular carcinoma + neoplastic nodule, dosed 78 weeks, study length 95 weeks",33 mg/kg/day
same,TD50,"mouse, strain B6C3F1, females, in feed, site: liver, lesion: hepatocellular carcinoma, dosed 78 weeks, study length 95 weeks",33 mg/kg/day
same,TD50,"mouse, strain B6C3F1, females, in feed, site: lung, lesion: alveolar/bronchiolar adenoma + alveolar/bronchiolar carcinoma, dosed 78 weeks, study length 95 weeks",1780 mg/kg/day
same,TD50,"mouse, strain B6C3F1, males, in feed, site: any site (literature study), lesion: several types, types named in the paper, dosed 78 weeks, study length 95 weeks",70.6 mg/kg/day
same,TD50,"mouse, strain B6C3F1, males, in feed, site: liver, lesion: hepatocellular adenoma + hepatocellular carcinoma + neoplastic nodule, dosed 78 weeks, study length 95 weeks",49.8 mg/kg/day
same,TD50,"mouse, strain B6C3F1, males, in feed, site: liver, lesion: hepatocellular adenoma + hepatocellular carcinoma, dosed 78 weeks, study length 95 weeks",49.8 mg/kg/day
same,TD50,"mouse, strain B6C3F1, males, in feed, site: liver, lesion: hepatocellular carcinoma, dosed 78 weeks, study length 95 weeks",46.4 mg/kg/day
same,TD50,"rat, strain Fischer 344, females, in feed, site: Zymbal's gland, lesion: carcinoma, NOS + squamous-cell carcinoma, dosed 78 weeks, study length 107 weeks",151 mg/kg/day
same,TD50,"rat, strain Fischer 344, females, in feed, site: Zymbal's gland, lesion: squamous-cell carcinoma, dosed 78 weeks, study length 107 weeks",212 mg/kg/day
same,TD50,"rat, strain Fischer 344, females, in feed, site: any site (literature study), lesion: several types, types named in the paper, dosed 78 weeks, study length 107 weeks",44.7 mg/kg/day
same,TD50,"rat, strain Fischer 344, females, in feed, site: liver + uterus + Zymbal's gland, lesion: hepatocellular carcinoma + neoplastic nodule + adenocarcinoma, NOS + carcinoma, NOS + squamous-cell carcinoma, dosed 78 weeks, study length 107 weeks",55.1 mg/kg/day
same,TD50,"rat, strain Fischer 344, females, in feed, site: liver, lesion: hepatocellular adenoma + hepatocellular carcinoma + neoplastic nodule, dosed 78 weeks, study length 107 weeks",237 mg/kg/day
same,TD50,"rat, strain Fischer 344, females, in feed, site: liver, lesion: hepatocellular carcinoma + neoplastic nodule, dosed 78 weeks, study length 107 weeks",237 mg/kg/day
same,TD50,"rat, strain Fischer 344, females, in feed, site: uterus, lesion: adenocarcinoma, NOS, dosed 78 weeks, study length 107 weeks",106 mg/kg/day
same,TD50,"rat, strain Fischer 344, males, in feed, site: Zymbal's gland, lesion: carcinoma, NOS + squamous-cell carcinoma, dosed 78 weeks, study length 106 weeks",240 mg/kg/day
same,TD50,"rat, strain Fischer 344, males, in feed, site: any site (literature study), lesion: several types, types named in the paper, dosed 78 weeks, study length 106 weeks",42.7 mg/kg/day
same,TD50,"rat, strain Fischer 344, males, in feed, site: liver + skin + subcutaneous tissue + Zymbal's gland, lesion: hepatocellular carcinoma + neoplastic nodule + basal-cell carcinoma + squamous-cell carcinoma + squamous-cell papilloma + carcinom, dosed 78 weeks, study length 106 weeks",28.1 mg/kg/day
same,TD50,"rat, strain Fischer 344, males, in feed, site: liver, lesion: hepatocellular adenoma + hepatocellular carcinoma + neoplastic nodule, dosed 78 weeks, study length 106 weeks",39.2 mg/kg/day
same,TD50,"rat, strain Fischer 344, males, in feed, site: liver, lesion: hepatocellular carcinoma + neoplastic nodule, dosed 78 weeks, study length 106 weeks",39.2 mg/kg/day
same,TD50,"rat, strain Fischer 344, males, in feed, site: liver, lesion: hepatocellular carcinoma, dosed 78 weeks, study length 106 weeks",156 mg/kg/day
same,TD50,"rat, strain Fischer 344, males, in feed, site: skin + subcutaneous tissue, lesion: basal-cell carcinoma + squamous-cell carcinoma + squamous-cell papilloma, dosed 78 weeks, study length 106 weeks",203 mg/kg/day
same,TD50,"rat, strain Fischer 344, males, in feed, site: skin + subcutaneous tissue, lesion: squamous-cell carcinoma + squamous-cell papilloma, dosed 78 weeks, study length 106 weeks",257 mg/kg/day
CC(=O)Nc1ccc(C(=O)CCl)cc1,TD50,"mouse, strain B6C3F1, females, in feed, site: any site (literature study), lesion: several types, types named in the paper, dosed 90 weeks, study length 105 weeks",3500 mg/kg/day
same,TD50,"mouse, strain B6C3F1, females, in feed, site: liver, lesion: hepatocellular adenoma + hepatocellular carcinoma + neoplastic nodule, dosed 90 weeks, study length 105 weeks",4700 mg/kg/day
same,TD50,"mouse, strain B6C3F1, females, in feed, site: liver, lesion: hepatocellular adenoma, dosed 90 weeks, study length 105 weeks",4700 mg/kg/day
same,TD50,"mouse, strain B6C3F1, females, in feed, site: lung, lesion: alveolar/bronchiolar adenoma + alveolar/bronchiolar carcinoma, dosed 90 weeks, study length 105 weeks",3020 mg/kg/day
same,carcinogen call,"mouse, strain B6C3F1, males, in feed, site: any site (literature study), lesion: several types, types named in the paper, dosed 90 weeks, study length 105 weeks",negative (inactive)
same,carcinogen call,"rat, strain Fischer 344, females, in feed, site: any site (literature study), lesion: several types, types named in the paper, dosed 87 weeks, study length 103 weeks",negative (inactive)
same,TD50,"rat, strain Fischer 344, males, in feed, site: any site (literature study), lesion: several types, types named in the paper, dosed 87 weeks, study length 103 weeks",325 mg/kg/day (inactive)
same,TD50,"rat, strain Fischer 344, males, in feed, site: liver, lesion: hepatocellular adenoma + hepatocellular carcinoma + neoplastic nodule, dosed 87 weeks, study length 103 weeks",2470 mg/kg/day
CN(C)N=Nc1ccccc1,TD50,"rat, strain BD, both sexes, by gavage, site: any site (literature study), lesion: malignant tumor, dosed 104 weeks, study length 104 weeks",2.31 mg/kg/day
same,TD50,"rat, strain BD, both sexes, by gavage, site: brain, lesion: several types, types named in the paper, dosed 104 weeks, study length 104 weeks",5.81 mg/kg/day
CC(=O)NN,TD50,"mouse, strain Swiss, females, by gavage, site: lung, lesion: several types, types named in the paper, dosed 34 weeks, study length 95 weeks",18.8 mg/kg/day
same,TD50,"mouse, strain Swiss, females, by gavage, site: lung, lesion: several types, types named in the paper, dosed 95 weeks, study length 95 weeks",53.8 mg/kg/day
same,TD50,"mouse, strain Swiss, males, by gavage, site: lung, lesion: several types, types named in the paper, dosed 34 weeks, study length 95 weeks",4.48 mg/kg/day
same,TD50,"mouse, strain Swiss, males, by gavage, site: lung, lesion: several types, types named in the paper, dosed 95 weeks, study length 95 weeks",35.6 mg/kg/day
C[C@@H]1Cc2c(Cl)cc(C(=O)N[C@@H](Cc3ccccc3)C(=O)O)c(O)c2C(=O)O1,TD50,"mouse, strain B6C3F1, females, in feed, site: liver, lesion: hepatocellular adenoma, dosed 104 weeks, study length 104 weeks",109 mg/kg/day
same,TD50,"mouse, strain B6C3F1, females, in feed, site: liver, lesion: hepatocellular carcinoma, dosed 104 weeks, study length 104 weeks",34.8 mg/kg/day
same,TD50,"mouse, strain B6C3F1, males, in feed, site: kidney, lesion: adenoma, dosed 104 weeks, study length 104 weeks",4.64 mg/kg/day
same,TD50,"mouse, strain B6C3F1, males, in feed, site: kidney, lesion: carcinoma, dosed 104 weeks, study length 104 weeks",10.3 mg/kg/day
same,TD50,"mouse, strain B6C3F1, males, in feed, site: kidney, lesion: several types, types named in the paper, dosed 104 weeks, study length 104 weeks",3.53 mg/kg/day
same,TD50,"mouse, strain B6C3F1, males, in feed, site: liver, lesion: hepatocellular adenoma, dosed 104 weeks, study length 104 weeks",48.1 mg/kg/day
same,TD50,"mouse, strain B6C3F1, males, in feed, site: liver, lesion: hepatocellular carcinoma, dosed 104 weeks, study length 104 weeks",58.7 mg/kg/day
same,carcinogen call,"rat, strain DA (from Hannover), females, by gavage, site: kidney, lesion: one or several types, types not named, dosed 110 weeks, study length 110 weeks",negative (inactive)
same,TD50,"rat, strain DA (from Hannover), males, by gavage, site: kidney, lesion: adenocarcinoma, dosed 110 weeks, study length 110 weeks",0.368 mg/kg/day
same,TD50,"rat, strain DA (from Hannover), males, by gavage, site: urinary bladder, lesion: transitional-cell carcinoma, dosed 110 weeks, study length 110 weeks",1.18 mg/kg/day
same,TD50,"rat, strain Fischer 344, females, by gavage, site: kidney + mammary gland, lesion: tubule adenoma + tubule carcinoma + fibroadenoma, dosed 103 weeks, study length 104 weeks",0.386 mg/kg/day
same,TD50,"rat, strain Fischer 344, females, by gavage, site: kidney, lesion: tubule adenoma + tubule carcinoma, dosed 103 weeks, study length 104 weeks",0.485 mg/kg/day
same,TD50,"rat, strain Fischer 344, females, by gavage, site: kidney, lesion: tubule adenoma, dosed 103 weeks, study length 104 weeks",0.813 mg/kg/day
same,TD50,"rat, strain Fischer 344, females, by gavage, site: kidney, lesion: tubule carcinoma, dosed 103 weeks, study length 104 weeks",1.31 mg/kg/day
same,TD50,"rat, strain Fischer 344, females, by gavage, site: mammary gland, lesion: fibroadenoma, dosed 103 weeks, study length 104 weeks",0.55 mg/kg/day
same,TD50,"rat, strain Fischer 344, males, by gavage, site: any site (literature study), lesion: several types, types named in the paper, dosed 103 weeks, study length 104 weeks",0.0863 mg/kg/day
same,TD50,"rat, strain Fischer 344, males, by gavage, site: kidney, lesion: tubule adenoma + tubule carcinoma + tubule epithelium adenoma + tubular-cell carcinoma, bilateral, dosed 103 weeks, study length 104 weeks",0.0579 mg/kg/day
same,TD50,"rat, strain Fischer 344, males, by gavage, site: kidney, lesion: tubule adenoma + tubule epithelium adenoma, dosed 103 weeks, study length 104 weeks",0.241 mg/kg/day
same,TD50,"rat, strain Fischer 344, males, by gavage, site: kidney, lesion: tubule carcinoma + tubular-cell carcinoma, bilateral, dosed 103 weeks, study length 104 weeks",0.0756 mg/kg/day
same,TD50,"rat, strain Fischer 344, males, by gavage, site: liver, lesion: hepatocellular adenoma + hepatocellular carcinoma + neoplastic nodule, dosed 103 weeks, study length 104 weeks",2.5 mg/kg/day
same,TD50,"rat, strain Lewis, females, by gavage, site: kidney, lesion: adenocarcinoma, dosed 110 weeks, study length 110 weeks",2.56 mg/kg/day
same,TD50,"rat, strain Lewis, males, by gavage, site: kidney, lesion: adenocarcinoma, dosed 110 weeks, study length 110 weeks",1.25 mg/kg/day
same,carcinogen call,"rat, strain Wistar, both sexes, by gavage, site: any site (literature study), lesion: one or several types, types not named, dosed 50 weeks, study length 110 weeks",negative (inactive)
NCCCCCCCCCCC(=O)O,TD50,"mouse, strain B6C3F1, females, in feed, site: any site (literature study), lesion: several types, types named in the paper, dosed 103 weeks, study length 109 weeks",15600 mg/kg/day (inactive)
same,TD50,"mouse, strain B6C3F1, females, in feed, site: liver, lesion: hepatocellular adenoma + hepatocellular carcinoma + neoplastic nodule, dosed 103 weeks, study length 109 weeks",37900 mg/kg/day
same,TD50,"mouse, strain B6C3F1, females, in feed, site: lung, lesion: alveolar/bronchiolar adenoma + alveolar/bronchiolar carcinoma, dosed 103 weeks, study length 109 weeks",18800 mg/kg/day
same,TD50,"mouse, strain B6C3F1, males, in feed, site: all sites, lesion: malignant lymphoma, dosed 103 weeks, study length 109 weeks",4970 mg/kg/day (inactive)
same,TD50,"mouse, strain B6C3F1, males, in feed, site: any site (literature study), lesion: several types, types named in the paper, dosed 103 weeks, study length 109 weeks",6500 mg/kg/day
same,TD50,"mouse, strain B6C3F1, males, in feed, site: liver, lesion: hepatocellular adenoma + hepatocellular carcinoma + neoplastic nodule, dosed 103 weeks, study length 109 weeks",6250 mg/kg/day
same,TD50,"rat, strain Fischer 344, females, in feed, site: any site (literature study), lesion: several types, types named in the paper, dosed 104 weeks, study length 109 weeks",1250 mg/kg/day (inactive)
same,TD50,"rat, strain Fischer 344, females, in feed, site: liver, lesion: hepatocellular adenoma + hepatocellular carcinoma + neoplastic nodule, dosed 104 weeks, study length 109 weeks",44600 mg/kg/day
same,TD50,"rat, strain Fischer 344, males, in feed, site: any site (literature study), lesion: several types, types named in the paper, dosed 104 weeks, study length 109 weeks",802 mg/kg/day
same,TD50,"rat, strain Fischer 344, males, in feed, site: liver + urinary bladder, lesion: hepatocellular carcinoma + neoplastic nodule + transitional-cell carcinoma, dosed 104 weeks, study length 109 weeks",833 mg/kg/day
same,TD50,"rat, strain Fischer 344, males, in feed, site: liver, lesion: hepatocellular adenoma + hepatocellular carcinoma + neoplastic nodule, dosed 104 weeks, study length 109 weeks",1100 mg/kg/day
same,TD50,"rat, strain Fischer 344, males, in feed, site: liver, lesion: hepatocellular carcinoma + neoplastic nodule, dosed 104 weeks, study length 109 weeks",1100 mg/kg/day
same,TD50,"rat, strain Fischer 344, males, in feed, site: liver, lesion: neoplastic nodule, dosed 104 weeks, study length 109 weeks",1290 mg/kg/day
same,TD50,"rat, strain Fischer 344, males, in feed, site: mammary gland, lesion: fibroadenoma, dosed 104 weeks, study length 109 weeks",2910 mg/kg/day
same,TD50,"rat, strain Fischer 344, males, in feed, site: urinary bladder, lesion: transitional-cell carcinoma, dosed 104 weeks, study length 109 weeks",3170 mg/kg/day
